Where “and” joins values, the source holds several entries; their conditions need not be identical. Identical values can stand only once. Calls of active or inactive are those of the source.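 The calls were made as follows: active = compounds giving half or more protection of infected cells from virus-caused growth loss, again on retest; inactive = the rest.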
Test system: CEM cells HIV-1 protection, formazan growth assay
Assay: NCI AIDS Antiviral Assay
Settings: for IC50: measured here: growth of uninfected CEM cells
In short: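 Human CEM cells, uninfected and HIV-1-infected, exposed to five drug concentrations; growth measured by soluble formazan assay and scored as percent protection from infection, with protecting compounds retested.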

Row | Structure (SMILES) | EC50 [µM] | IC50 | outcome
1 | O=P(CCOc1ccccc1OCCP(=O)(c1ccccc1)c1ccc2c(c1)OCCOCCOCCOCCO2)(c1ccccc1)c1ccc2c(c1)OCCOCCOCCOCCO2 (centres undefined) | > 263 | > 263 µM | 
2 | COC(=O)C1=C(C(=O)OC)N(c2ccncc2)C(c2ccco2)=CC1c1ccccc1[N+](=O)[O-] (centres undefined) | > 74.1 | 7.24 µM | 
3 | Cc1ccc(Nc2nc(NS(=O)(=O)c3cc(C)c(Cl)cc3S)n[nH]2)cc1 | > 191 | 178 µM | 
4 | N#Cc1nc(/C=C/c2nc(C#N)c(N)o2)oc1N | > 100 | > 100 µM | 
5 | CC(SCC(=O)O)=[N+]1CCCCC1 | > 891 | > 891 µM | 
6 | c1cc2c(cc1[C@@H]1OC[C@@H]3[C@H]1CO[C@H]3c1ccc3c(c1)OCO3)OCO2 | > 200 | 79.4 µM | 
7 | Cc1cc2[n-]c1/C=c1\[n-]/c(c(CCC(=O)O)c1C)=C\c1[n-]c(c(C)c1CCC(=O)O)/C=c1/cc(C)/c([n-]1)=C/2.[Ni] | > 9.12 |  | 
8 | O=[N+]([O-])C(=C/c1cccs1)/C(=C\c1cccs1)[N+](=O)[O-] | > 200 | 1.55 µM | 
9 | COC(=O)c1ccccc1NC(=O)/C(=N\NC(C)(C)C)C(C#N)c1nc(-c2ccc([N+](=O)[O-])cc2)cs1 (centres undefined) | > 69.2 | > 69.2 µM | 
10 | O=C1c2c(c3c4ccccc4n4c3c3c2c2ccccc2n3C/C=C\C4)C(=O)N1Cc1ccccc1 |  |  | inactive
11 | CN(C)CCSC1=Nc2ccc(Cl)cc2C(c2ccccc2Cl)=NC1 | > 200 | 12.3 µM and 47.9 µM | 
12 | O=C1c2ccccc2C(=O)c2sc(Nc3cccc(Cl)c3)nc21 | > 5.89 | 3.39 µM | 
13 | CNc1ccc(/C=C/c2ccnc3ccccc23)cc1 | > 200 | 6.31 µM | 
14 | COC1(C)C[C@@]23CC[C@@H]4C(C)(C(=O)O)CCCC4(C)[C@@H]2CC[C@@H]1C3 (some centres undefined) | > 200 | 120 µM | 
15 | NC(CSS(=O)(=O)O)=NCCSc1ccc(Cl)cc1 | > 200 | 60.3 µM | 
16 | CCOC(=O)Nn1c(C)nnc1-c1ccccc1 | > 200 | > 200 µM | 
17 | Nc1nnnc2nc[nH]c12 | > 20 | 0.537 µM | 
18 | CSc1nc(C)c(Br)c(=O)n1C1OC(COC(C)=O)C(OC(C)=O)C(OC(C)=O)C1OC(C)=O (centres undefined) | > 200 | > 200 µM | 
19 | COc1cc(O)c(/C=N/N=C(\N)NO)c(OC)c1 | > 200 | 44.7 µM | 
20 | Cc1ccc(S(=O)(=O)[C@@H](Cl)[C@H]2N=C(Cl)NN=C2c2ccccc2)cc1 | > 200 | 37.2 µM | 
21 | Nc1nc2c(C(=O)c3cccs3)nnn2c2cccc(Cl)c12 | > 11.5 | > 11.5 µM | 

Row | Structure (SMILES) | EC50 [µM] | IC50 | outcome
22 | O=C1CC2(CCN(Cc3ccccc3)CC2)C(=O)N1N1CCCCC1 | > 200 | > 200 µM | 
23 | NC(=O)C(=CNC(=S)c1cccnc1)C(N)=O | > 200 | 74.1 µM | 
24 | CC(C)(C)c1nc2c(o1)C(=Nc1ccccc1)c1ccccc1C2=O |  |  | inactive
25 | OCC(O)C(OC1OC(CO)C(O)C(O)C1O)c1nn(-c2ccc(Cl)cc2)c2nc3cc(Cl)ccc3nc12 (centres undefined) |  |  | inactive
26 | COc1ccc(C2Oc3cc(OC)c(O)c(C)c3[C@H]2C)cc1 (some centres undefined) | > 45.7 | 30.9 µM | 
27 | CSc1cc(Br)ccc1-n1c(C(=O)c2ccccc2)c(SC)n(-c2ccccc2)c1=O | > 200 | 14.5 µM | 
28 | CC(C)c1ccc2c(c1)C=C1OC(=O)[C@]3(C)CCC[C@@]2(C)C13 (some centres undefined) | > 200 | 115 µM | 
29 | COC(=O)C(Cc1ccccc1)OC(=O)C(N)CC(=O)O (centres undefined) | > 200 | > 200 µM | 
30 | C/C(O)=C/c1nc2ccccc2n2nnnc12 | > 110 | > 110 µM | 
31 | CCCCC/C=C/C/C=C/CCCCCCCC(=O)OCC(COC1OC(CS(=O)(=O)O)C(O)C(O)C1O)OC(=O)CCCCCCC/C=C/C/C=C/CCCCC (centres undefined) | > 27.5 | > 27.5 µM | 
32 | O=C(O)COc1c2occc2cc2ccc(=O)oc12 | > 347 | > 347 µM | 
33 | O=C1C=CC2O[C@H](c3ccccc3)[C@@H](O)C2O1 (some centres undefined) | > 1070 | 6.46 µM | 
34 | COC1/C=C\OC2(C)Oc3c(C)c(O)c4c(O)c(c(/C=N/N(Cc5ccccc5)C56CC7CC(CC(C7)C5)C6)c(O)c4c3C2=O)NC(=O)/C(C)=C\C=C\C(C)C(O)C(C)C(O)C(C)C(OC(C)=O)C1C (centres undefined) | > 200 | 6.92 µM | 
35 | COC(=O)C(NC(=O)c1ccccc1)C(c1c(O)cc(O)cc1O)P(=O)(OC)OC (centres undefined) | > 16.2 | > 16.2 µM | 
36 | O=[N+]([O-])c1ccccc1C=NC12CC3CC(CC(C3)C1)C2 | > 115 | > 115 µM | 
37 | N#Cc1ccsc1Nc1ccccc1[N+](=O)[O-] | 95.5 | > 200 µM | 
38 | CON(C)C(=O)CCCO | > 1700 | > 1700 µM | 
39 | COc1ccc(NC(=O)CSc2nnc(-c3ccc(NC(C)=O)cc3)o2)cc1 | > 33.9 | 19.1 µM | 
40 | O=S(=O)(F)c1cc(Cl)ccc1C[P+](c1ccccc1)(c1ccccc1)c1ccccc1 | > 200 | 64.6 µM | 
41 | COC(=O)/C=C\C1C(C(=O)OC)C2(C(=O)OC)CCC1(C(=O)OC)N2 (centres undefined) |  |  | inactive
42 | N/C(=N\NS(=O)(=O)c1ccccc1)Oc1ccc(Br)cc1Br | > 112 | > 112 µM | 

Row | Structure (SMILES) | EC50 [µM] | IC50 | outcome
43 | CN(CN(C)/N=C/c1ccc(Cl)cc1)/N=C/c1ccc(Cl)cc1 |  |  | inactive
44 | N#CC(C#N)=CN | > 200 | > 200 µM | 
45 | Cn1c(=O)n(C2(C)C[Se]C2)c2ccccc21 | > 468 | 166 µM | 
46 | CC1CC(=O)C2CC(CO)=CCCC2C1(C)CC/C(=C/CO)CO (centres undefined) |  |  | inactive
47 | CC(=O)CN(Cc1cc(C)c2c(c1)c1ccccc1n2Cc1ccccc1)S(=O)(=O)c1ccc(C)cc1 | > 19.5 | > 19.5 µM | 
48 | CC1=CC(=O)N(n2c(Cc3ccc(Cl)cc3)n[nH]c2=O)C1=O | > 200 | > 200 µM | 
49 | CC(=O)NNc1ncc(C(=O)/C=C/c2ccccc2C)s1 | > 22.4 | > 22.4 µM | 
50 | O=C(C1=CCC2(CC1)OCCO2)N(Cc1ccccc1)c1ccccc1I | > 200 | 32.4 µM | 
51 | c1cc[c]([Pb]([c]2ccccc2)[c]2ccccc2)cc1 |  |  | inactive
52 | [O-][n+]1nc(N2CCOCC2)nc2ccccc21 | > 200 | > 200 µM | 
53 | O=c1cc(-c2ccccc2)oc2cc(O)c(O)c(O)c12 | > 200 | 22.4 µM | 
54 | CCOC(=O)C1=C(O)C(=O)c2ccsc2C1=O | > 708 | 120 µM | 
55 | Cc1cc(N(CCC#N)CCC#N)ccc1/C=C1N=C(/C=C\c2ccccc2)OC\1=O | > 17.8 | > 17.8 µM | 
56 | CN1C(=S)NC2C(O)C(O)C(CO)OC21 (centres undefined) | > 1070 | > 1070 µM | 
57 | O=S(=O)(c1ccccc1)N1CC2C3C=CC(C3)C2C1 (centres undefined) | > 200 | 145 µM | 
58 | c1cc2nnsc2s1 | > 251 | > 251 µM | 
59 | C[C@]12CCc3nonc3C1CC[C@@H]1C2CC[C@]2(C)C(=O)CCC12 (some centres undefined) | > 83.2 | > 83.2 µM | 
60 | S=c1sc2ccccc2n1CN1CCN(Cc2ccccc2)CC1 | > 200 | > 200 µM | 
61 | CCOC(=O)NC(Nc1ccc(C(=O)OCC)cc1)(C(F)(F)F)C(F)(F)F | > 200 | 17 µM | 
62 | Cn1c2c(c3ccccc31)C1C(=O)N(c3ccccc3)C(=O)C1CC2 (centres undefined) | > 57.5 | > 57.5 µM | 
63 | CN(C)CCNCc1ccc(-c2cccc(-c3ccc(CNCCN(C)C)cc3)n2)cc1 | > 204 | 2.45 µM | 

Row | Structure (SMILES) | EC50 [µM] | IC50 | outcome
64 | Cc1cc(NS(=O)(=O)c2ccc(N=Nc3cc(N=Nc4ccc(S(=O)(=O)Nc5cc(C)nc(C)n5)cc4)c4c(NC(=O)C(Cl)Cl)cccc4c3OC(=O)C(Cl)Cl)cc2)nc(C)n1 (tested in a mixture with another compound) |  |  | inactive
65 | CC1c2cc(c3c(c2O)CN([C@@H](C)C2CCCCC2)CO3)C(C)c2cc(c3c(c2O)CN([C@@H](C)C2CCCCC2)CO3)C(C)c2cc(c3c(c2O)CN([C@@H](C)C2CCCCC2)CO3)C(C)c2cc1c1c(c2O)CN([C@@H](C)C2CCCCC2)CO1 (some centres undefined) | > 100 | 1.74 µM | 
66 | COC1/C=C\OC2(C)Oc3c(C)c(O)c4c(O)c(c(/C=N\OCCCc5ccccc5)c(O)c4c3C2=O)NC(=O)/C(C)=C\C=C/C(C)C(O)C(C)C(O)C(C)C(OC(C)=O)C1C (centres undefined) | > 200 | 6.61 µM | 
67 | CC(/C=C/C1OC(=O)C=CC1C)=C\C(C)C/C=C/C(C)=C/C(C)C(=O)C(C)C(O)C(C)C/C(C)=C/C(=O)O (centres undefined) | > 0.02 | 0.00631 µM | 
68 | CC(O)C1OC(n2cnc3c(=O)[nH]c(N)nc32)C(O)C1O (centres undefined) | > 170 | > 170 µM | 
69 | COc1cc(O)c2c(c1C)C(C)(O)c1c(C)coc1C2=O (centres undefined) |  |  | inactive
70 | N#Cc1ccc(S(=O)(=O)c2ccc(C#N)cc2)cc1 | > 200 | > 200 µM | 
71 | O=S(=O)(O)CCCCBr | > 200 | > 200 µM | 
72 | O=C1C=CC(=O)N1Nc1ccc([N+](=O)[O-])cc1[N+](=O)[O-] | > 200 | 110 µM | 
73 | NC(=O)C(=CN1C(=O)CC(=O)NC1=S)C(N)=O | > 200 | > 200 µM | 
74 | CC1C(=O)N(C)C2(CO)C(=O)O[C@H](C)C12O (some centres undefined) |  |  | inactive
75 | CCOc1ccc(-n2c(=O)c(N=Nc3ccccc3Cl)c(O)n(-c3ccc(Br)cc3)c2=S)cc1 | > 174 | > 174 µM | 
76 | CC(=O)NC(=O)NC1=NCCC(=O)N1CCc1c[nH]c2ccccc12 | > 200 | > 200 µM | 
77 | Cn1c2ccccc2c(=NNc2ccc(C(=O)O)cc2)c2ccccc21 | > 200 | 13.8 µM | 
78 | CC1=C(C)C2(C#N)CC(=O)N=C2O1 (centres undefined) | > 200 | > 200 µM | 
79 | Nc1ccccc1SC(/C=C/NNC1=NC(c2ccccc2)C(c2ccccc2)=NN1)c1ccccc1 (centres undefined) | > 100 | 4.27 µM | 
80 | C=C1C(C2(C)C=CC(=O)OC3(C)COC(=O)CC32)C(OC=O)C(OC(=O)C(O)C(C)CC)C2(C)C(c3ccoc3)CC(OC(C)=O)C12O (centres undefined) |  |  | inactive
81 | C/C(CN1C(=O)c2ccccc2C1=O)=N\NS(=O)(=O)c1cccc(C(=O)O)c1 | > 309 | > 309 µM | 
82 | CC(C)=NOC(=O)CNC(=O)C(Cc1ccccc1)NC(=O)C(C)NC(=O)OC(C)(C)C (centres undefined) | > 200 | > 200 µM | 
83 | CCCC(=N\N=C(N)N)/C(CCC)=N/N=C(N)N | > 186 | > 186 µM | 
